By IC50 is commonly meant the concentration that gives 50% inhibition. High values mean a need for much substance, low ones inhibition by little substance.

The structures appear in SMILES notation.

This test concerns the target T1, Chymase purified form human skin mast cells (Homo sapiens, UniProt P23946).
T1 construct: Chymase purified form human skin mast cells was obtained from Calbiochem; purchased Calbiochem (Merck Biosciences, San Diego, Calif., USA); host or cells: human skin mast cells (natural source)
T1 sequence (P23946 22-247): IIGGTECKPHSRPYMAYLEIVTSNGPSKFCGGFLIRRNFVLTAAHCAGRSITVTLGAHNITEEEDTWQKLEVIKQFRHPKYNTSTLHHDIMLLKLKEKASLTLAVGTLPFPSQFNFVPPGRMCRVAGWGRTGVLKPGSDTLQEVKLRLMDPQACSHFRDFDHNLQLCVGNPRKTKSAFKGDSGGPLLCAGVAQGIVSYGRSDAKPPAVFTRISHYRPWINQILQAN
As to the kind of experiment: chymase peptide substrate (AAPF-AMC) fluorescence assay. It counts as biochemical. Particulars: 0.02 mM AAPF-substrate, 0.1 nM Chymase, pH 7.4, room temperature, 30 min pre-incubation. Here is the method: The peptide was synthesized with a purity of 95% from Bachem, Bubendorf, Switzerland). Chymase purified form human skin mast cells was obtained from Calbiochem (Merck Biosciences, San Diego, Calif., USA). The assay buffer was 0.15 M NaCl, 0.05M, Tris HCl, 0.05% CHAPS (3-[(3-Cholamidopropyl)-dimethylammonio]-1-propane sulphonate), 0.1 mg/ml Heparin (Heparin sodium, Sigma, porcine intestinal mucosa), 0.02 mM AAPF-substrate, 0.1 nM Chymase at pH 7.4. The assay was performed in 96-well plates (Packard Optiplate), with a 0.05 ml volume at room temperature. Chymase activity was indicated by the initial rate of increase in fluorescence at 340/440 nm (excitation/emission) from free 7-amino-4-methylcoumarin released from the substrate. Inhibition of the activity by inhibitory compounds was read after 30 min pre-incubation with the chymase at room temperature in assay buffer without AAPF-substrate. The assay was then started by addition of the indicated concentration of AAPF-substrate.
`COC(=O)N(C)Cc1c(C(=O)O)n(Cc2cccc3ccc(F)cc23)c2ccccc12` [Example 106, 1-(7-Fluoro-naphthalen-1-ylmethyl)-3-[(methoxycarbonyl-methyl-amino)-methyl]-1H-indole-2-carboxylic acid] yielded an IC50 of 0.2 nM.
`COC(=O)N(C)Cc1c(C(=O)O)n(Cc2csc3ccc(F)cc23)c2ccccc12` [Example 117, 1-(5-Fluoro-benzo[b]thiophen-3-ylmethyl)-3-[(methoxycarbonyl-methyl-amino)-methyl]-1H-indole-2-carboxylic acid] had an IC50 of 1 nM.
The result for `Cc1ccc(C(=O)NCc2c(C(=O)O)n(Cc3cccc4ccccc34)c3ccccc23)cc1` [Example 10, 3-[(4-Methyl-benzoylamino)-methyl]-1-naphthalen-1-ylmethyl-1H-indole-2-carboxylic acid] reads 38 nM.
In turn, `CS(=O)(=O)NCc1c(C(=O)O)n(Cc2cccc3ccc(F)cc23)c2ccccc12` [Example 105, 1-(7-Fluoro-naphthalen-1-ylmethyl)-3-(methanesulfonylamino-methyl)-1H-indole-2-carboxylic acid] returned an IC50 of 0.8 nM.
The compound `O=C(O)c1cc2ccccc2n1Cc1cccc2ccc(F)cc12` [Example 49, 1-(7-Fluoro-naphthalen-1-ylmethyl)-1H-indole-2-carboxylic acid] came in with an IC50 of 17 nM.
Under `O=C(O)Cc1c(C(=O)O)n(Cc2cccc3ccccc23)c2ccccc12` [Example 5, 3-Carboxymethyl-1-naphthalen-1-ylmethyl-1H-indole-2-carboxylic acid] stands 37 nM; under `O=C(O)c1cc2ccccc2n1Cc1csc2ccc(F)cc12` [Example 55, 1-(5-Fluoro-benzo[b]thiophen-3-ylmethyl)-1H-indole-2-carboxylic acid], 30 nM.

Values taken from patent US7696240B2, “Fused pyrrole derivatives” (Hoffmann-La Roche Inc., priority 2005, dated 2010).
